Test [1] deals with purified human Factor XIa (Homo sapiens (Human), UniProt P03951). In words: Factor XIa enzyme inhibition assay (chromogenic substrate S-2366).
Experimental: The effectiveness of compounds of the present invention as inhibitors of the coagulation Factors XIa, VIIa, IXa, Xa, XIIa, plasma kallikrein or thrombin, can be determined using a relevant purified serine protease, respectively, and an appropriate synthetic substrate. The rate of hydrolysis of the chromogenic or fluorogenic substrate by the relevant serine protease was measured both in the absence and presence of compounds of the present invention. […] A decrease in the rate of absorbance or fluorescence change in the presence of inhibitor is indicative of enzyme inhibition. […] The results of this assay are expressed as the inhibitory constant, Ki.
Values of Ki were determined by allowing the protease to react with the substrate in the presence of the inhibitor.
The target of test [2] is purified human plasma kallikrein (Homo sapiens (Human), UniProt P03952). In words: Plasma kallikrein enzyme inhibition assay (chromogenic substrate S-2302). The test is classed as biochemical.
Setting [3] is: read-out: Factor XIa Ki, measured at 25° C., TFA salt.
[4] abbreviates: measured at 25° C. (no asterisk), TFA salt.
Setting [5] is: read-out: Factor XIa Ki, measured at 25° C.
[6] abbreviates: measured at 25° C. (no asterisk).

Counter-ions that a name gives are not always drawn. Like-named read-outs stand apart in the source and are kept apart here.

Chain of purified human Factor XIa (P03951 388-625): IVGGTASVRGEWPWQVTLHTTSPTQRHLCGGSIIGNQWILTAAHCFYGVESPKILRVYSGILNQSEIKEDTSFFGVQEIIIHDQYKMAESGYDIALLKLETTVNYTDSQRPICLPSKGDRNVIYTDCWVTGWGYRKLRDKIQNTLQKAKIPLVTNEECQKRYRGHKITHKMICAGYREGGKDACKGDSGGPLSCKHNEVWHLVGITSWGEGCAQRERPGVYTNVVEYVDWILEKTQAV
Chain of purified human Factor XIa (P03951 19-387 partner): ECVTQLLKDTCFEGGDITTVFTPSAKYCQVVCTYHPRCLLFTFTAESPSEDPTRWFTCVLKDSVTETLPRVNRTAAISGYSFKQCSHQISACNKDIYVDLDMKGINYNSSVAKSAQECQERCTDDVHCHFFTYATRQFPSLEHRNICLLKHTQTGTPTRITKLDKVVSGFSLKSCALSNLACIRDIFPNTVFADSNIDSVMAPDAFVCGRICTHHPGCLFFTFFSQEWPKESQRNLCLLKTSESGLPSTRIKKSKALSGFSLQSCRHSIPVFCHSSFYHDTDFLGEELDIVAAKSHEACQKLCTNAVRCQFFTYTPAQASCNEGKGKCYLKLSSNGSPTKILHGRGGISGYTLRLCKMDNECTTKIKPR
Chain of purified human plasma kallikrein (P03952 391-638): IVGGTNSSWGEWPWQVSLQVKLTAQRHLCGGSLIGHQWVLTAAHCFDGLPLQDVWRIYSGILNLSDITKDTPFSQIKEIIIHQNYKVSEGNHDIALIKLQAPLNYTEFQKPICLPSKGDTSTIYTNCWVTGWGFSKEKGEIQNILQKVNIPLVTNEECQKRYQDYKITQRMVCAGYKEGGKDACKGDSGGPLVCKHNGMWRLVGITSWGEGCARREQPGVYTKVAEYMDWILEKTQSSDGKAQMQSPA
Chain of purified human plasma kallikrein (P03952 20-390 partner): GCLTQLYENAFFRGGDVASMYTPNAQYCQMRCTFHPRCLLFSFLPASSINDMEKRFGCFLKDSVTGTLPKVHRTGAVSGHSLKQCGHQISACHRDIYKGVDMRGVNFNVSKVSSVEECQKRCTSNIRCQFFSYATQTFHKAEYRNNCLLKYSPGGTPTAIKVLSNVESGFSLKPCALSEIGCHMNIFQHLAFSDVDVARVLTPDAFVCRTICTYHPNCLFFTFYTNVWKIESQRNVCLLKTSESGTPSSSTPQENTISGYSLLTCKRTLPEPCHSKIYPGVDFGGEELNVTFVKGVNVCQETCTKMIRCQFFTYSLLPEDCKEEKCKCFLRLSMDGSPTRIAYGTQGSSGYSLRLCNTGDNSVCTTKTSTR

Take `COC1CCN(c2cccc3c2CCN(C(=O)C2CC(c4c(C(F)(F)F)ccc(Cl)c4F)=NO2)C3C(=O)Nc2ccc(C(=O)O)cc2)CC1` (stereo not drawn) [Example 298, 4-(2-(3-(3-chloro-2-fluoro-6-(trifluoromethyl)phenyl)-4,5-dihydroisoxazole-5-carbonyl)-5-(4-methoxypiperidin-1-yl)-1,2,3,4-tetrahydroisoquinoline-1-carboxamido)benzoic acid, TFA salt]: the figures for the Ki in test [1] (setting [3]) and in test [2] (setting [4]) were 64.8 nM and 1010 nM, respectively.
Turning to `O=C(O)c1ccc(NC(=O)C2c3cccc(-c4cccnc4)c3CCN2C(=O)c2cn(-c3cccc(Cl)c3F)nn2)cc1` (stereo not drawn) [Example 33, 4-(2-(1-(3-chloro-2-fluorophenyl)-1H-1,2,3-triazole-4-carbonyl)-5-(pyridin-3-yl)-1,2,3,4-tetrahydroisoquinoline-1-carboxamido)benzoic acid, TFA salt], the Ki is under 5 nM in test [1] (setting [5]) and 9.54 nM in test [2] (setting [6]).
For `CN1CCN(c2cccc3c2CCN(C(=O)c2cncc(-c4cccc(Cl)c4)c2)C3C(=O)Nc2ccc(C(=O)O)cc2)CC1` (stereo not drawn) [Example 320, 4-(2-(5-(3-Chlorophenyl)nicotinoyl)-5-(4-methylpiperazin-1-yl)-1,2,3,4-tetrahydroisoquinoline-1-carboxamido)benzoic acid, 2 TFA salt], in that order: 158 nM and 124 nM.
Take `CN(C)C1CCN(c2cccc3c2CCN(C(=O)c2cnn(-c4cccc(Cl)c4F)c2)C3C(=O)Nc2ccc(OCC3CCCO3)cc2)CC1` (stereo not drawn) [Example 95, 2-(1-(3-chloro-2-fluorophenyl)-1H-pyrazole-4-carbonyl)-5-(4-(dimethylamino)piperidin-1-yl)-N-(4-((tetrahydrofuran-2-yl)methoxy)phenyl)-1,2,3,4-tetrahydroisoquinoline-1-carboxamide, TFA salt]: the values for the Ki in test [1] (setting [5]) and in test [2] (setting [6]) were 14.7 nM and 16.9 nM, respectively.
With `COC1CCN(c2cccc3c2CCN(C(=O)C2CC(c4c(F)ccc(Cl)c4F)=NO2)C3C(=O)Nc2ccc(C(=O)O)cc2)CC1` (stereo not drawn) [Example 256, 4-(2-(3-(3-chloro-2,6-difluorophenyl)-4,5-dihydroisoxazole-5-carbonyl)-5-(4-methoxypiperidin-1-yl)-1,2,3,4-tetrahydroisoquinoline-1-carboxamido)benzoic acid, TFA salt], the Ki was 12.5 nM in test [1] (setting [3]) and 198 nM in test [2] (setting [4]).
Turning to `COC1CCN(c2cccc3c2CCN(C(=O)c2cnn(-c4cccc(Cl)c4F)c2N)[C@@H]3C(=O)Nc2ccc(C(=O)O)cc2)CC1` [Example 285, (S)-4-(2-(5-amino-1-(3-chloro-2-fluorophenyl)-1H-pyrazole-4-carbonyl)-5-(4-methoxypiperidin-1-yl)-1,2,3,4-tetrahydroisoquinoline-1-carboxamido)benzoic acid, TFA salt], the Ki was under 5 nM in test [1] (setting [5]) and 19.8 nM in test [2] (setting [6]).
The like results for `CC(C)c1nnc2n1CCN(c1cccc3c1CCN(C(=O)c1cn(-c4cccc(Cl)c4F)nn1)[C@@H]3C(=O)Nc1ccc(C(=O)O)cc1)C2` [Example 66, (S)-4-(2-(1-(3-chloro-2-fluorophenyl)-1H-1,2,3-triazole-4-carbonyl)-5-(3-isopropyl-5,6-dihydro-[1,2,4]triazolo[4,3-a]pyrazin-7(8H)-yl)-1,2,3,4-tetrahydroisoquinoline-1-carboxamido)benzoic acid, TFA salt] were, in that order, under 5 nM and 2.57 nM.
For `CN1CCN(c2cccc3c2CCN(C(=O)c2cn(-c4cccc(Cl)c4F)nn2)C3C(=O)Nc2ccc(C(=O)O)cc2)CC1` (stereo not drawn) [Example 211, 4-(2-(1-(3-chloro-2-fluorophenyl)-1H-1,2,3-triazole-4-carbonyl)-5-(4-methylpiperazin-1-yl)-1,2,3,4-tetrahydroisoquinoline-1-carboxamido)benzoic acid, 2 TFA salt], in that order: under 5 nM and 0.52 nM.
For `COC1CCN(c2cccc3c2CCN(C(=O)c2cnn(-c4cccc(Cl)c4F)c2N)[C@H]3C(=O)Nc2ccc(C(=O)O)cc2)CC1` [Example 286, (R)-4-(2-(5-amino-1-(3-chloro-2-fluorophenyl)-1H-pyrazole-4-carbonyl)-5-(4-methoxypiperidin-1-yl)-1,2,3,4-tetrahydroisoquinoline-1-carboxamido)benzoic acid, TFA salt], in that order: 266 nM and 3290 nM.
Consider `CN1CCN(c2cccc3c2CCN(C(=O)c2cn(-c4cccc(Cl)c4)nc2C(F)(F)F)C3C(=O)Nc2ccc(C(=O)O)cc2)CC1` (stereo not drawn) [Example 199, 4-(2-(1-(3-chlorophenyl)-3-(trifluoromethyl)-1H-pyrazole-4-carbonyl)-5-(4-methylpiperazin-1-yl)-1,2,3,4-tetrahydroisoquinoline-1-carboxamido)benzoic acid, 2 TFA salt], for which the Ki is 2300 nM in test [1] (setting [5]) and over 6000 nM in test [2] (measured at 37° C. (*)).
Consider `COC1CCN(c2cccc3c2CCN(C(=O)c2cc(-c4cccc(Cl)c4F)ns2)C3C(=O)Nc2ccc(C(=O)O)cc2)CC1` (racemic) [Example 269, 4-(2-(3-(3-chloro-2-fluorophenyl)isothiazole-5-carbonyl)-5-(4-methoxypiperidin-1-yl)-1,2,3,4-tetrahydroisoquinoline-1-carboxamido)benzoic acid, TFA salt], for which the Ki in test [1] was found to be 33.5 nM; in test [2] (setting [6]), 205 nM.
Regarding `CN1CCN(c2cccc3c2CCN(C(=O)c2cn(-c4cccc(Cl)c4F)cn2)C3C(=O)Nc2ccc(C(=O)O)cc2)CC1=O` (racemic) [Example 284, 4-(2-(1-(3-chloro-2-fluorophenyl)-1H-imidazole-4-carbonyl)-5-(4-methyl-3-oxopiperazin-1-yl)-1,2,3,4-tetrahydroisoquinoline-1-carboxamido)benzoic acid, TFA salt], the Ki in test [1] was under 5 nM; in test [2] (setting [6]) it was 6.25 nM.
With `CN(C)C1CCN(c2cccc3c2CCN(C(=O)c2cnn(-c4cccc(Cl)c4F)c2)[C@H]3C(=O)Nc2ccc(C(=O)O)cc2)CC1` (single isomer, unassigned) [Example 51, bis-TFA salt], the Ki in test [1] (setting [5]) is 54.5 nM; in test [2] (setting [6]), 340 nM.
As for `CC(C)c1nnc2n1CCN(C(=O)c1cn(-c3cccc(Cl)c3F)nn1)C2C(=O)Nc1ccc(C(=O)O)cc1` (stereo not drawn) [Example 223, 4-(7-(1-(3-Chloro-2-fluorophenyl)-1H-1,2,3-triazole-4-carbonyl)-3-isopropyl-5,6,7,8-tetrahydro-[1,2,4]triazolo[4,3-a]pyrazine-8-carboxamido)benzoic acid], the Ki in test [1] (setting [5]) was 2630 nM; in test [2] (setting [6]), 3510 nM.
The like results for `COC(C)(C)C1CCN(c2cccc3c2CCN(C(=O)c2cnn(-c4cccc(Cl)c4F)c2)C3C(=O)Nc2ccc(C(=O)O)cc2)CC1` (stereo not drawn) [Example 224, 4-(2-(1-(3-Chloro-2-fluorophenyl)-1H-pyrazole-4-carbonyl)-5-(4-(2-methoxypropan-2-yl)piperidin-1-yl)-1,2,3,4-tetrahydroisoquinoline-1-carboxamido)benzoic acid, TFA salt] were, in that order, under 5 nM and 92 nM.
Consider `Cn1nccc1-c1cccc2c1CCN(C(=O)c1cn(-c3cccc(Cl)c3F)nn1)C2C(=O)Nc1ccc(C(=O)O)cc1` (stereo not drawn) [Example 42, 4-(2-(1-(3-chloro-2-fluorophenyl)-1H-1,2,3-triazole-4-carbonyl)-5-(1-methyl-1H-pyrazol-5-yl)-1,2,3,4-tetrahydroisoquinoline-1-carboxamido)benzoic acid], for which the Ki in test [1] is under 5 nM; in test [2] (setting [6]), 13.1 nM.
On to `COCCOc1cccc2c1CCN(C(=O)c1cn(-c3cccc(Cl)c3F)nn1)C2C(=O)Nc1ccc(C(=O)O)cc1` (stereo not drawn) [Example 113, 4-(2-(1-(3-Chloro-2-fluorophenyl)-1H-1,2,3-triazole-4-carbonyl)-5-(2-methoxyethoxy)-1,2,3,4-tetrahydroisoquinoline-1-carboxamido)benzoic acid], for which the Ki was under 5 nM in test [1] and 11.9 nM in test [2] (setting [6]).
`COC(=O)c1ccc(NC(=O)[C@H]2c3cccc(-c4cncnc4)c3CCN2C(=O)[C@H]2CC(c3cccc(Cl)c3F)=NO2)cc1` [Example 29, Methyl 4-((R)-2-((R)-3-(3-chloro-2-fluorophenyl)-4,5-dihydroisoxazole-5-carbonyl)-5-(pyrimidin-5-yl)-1,2,3,4-tetrahydroisoquinoline-1-carboxamido)benzoate]: the Ki in test [1] (setting [5]) was determined as 58.9 nM; in test [2] (measured at 37° C. (*)), 1200 nM.
`CCOC(=O)Cc1ccc(NC(=O)C2c3cccc(-c4ccc(C(=O)NC)nc4)c3CCN2C(=O)c2cn(-c3cccc(Cl)c3F)nn2)cc1` (stereo not drawn) [Example 116, Ethyl 2-(4-(2-(1-(3-Chloro-2-fluorophenyl)-1H-1,2,3-triazole-4-carbonyl)-5-(6-(methylcarbamoyl)pyridin-3-yl)-1,2,3,4-tetrahydroisoquinoline-1-carboxamido)phenyl)acetate, TFA salt]: the Ki is 13.6 nM in test [1] (setting [5]) and 128 nM in test [2] (setting [6]).
For `CN1CCN(c2cccc3c2CCN(C(=O)c2cn(-c4cccc(Cl)c4)nn2)C3C(=O)Nc2ccc(C(=O)O)cc2)CC1` (stereo not drawn) [Example 201, 4-(2-(1-(3-chlorophenyl)-1H-1,2,3-triazole-4-carbonyl)-5-(4-methylpiperazin-1-yl)-1,2,3,4-tetrahydroisoquinoline-1-carboxamido)benzoic acid, 2 TFA salt], in that order: 9.88 nM and 4.21 nM.
`COC1CCN(c2cccc3c2CCN(C(=O)c2cncc(-c4cccc(Cl)c4F)c2)C3C(=O)Nc2ccc(C(=O)O)cc2)CC1` (stereo not drawn) [Example 323, 4-(2-(5-(3-Chloro-2-fluorophenyl)nicotinoyl)-5-(4-methoxypiperidin-1-yl)-1,2,3,4-tetrahydroisoquinoline-1-carboxamido)benzoic acid, 2 TFA salt]: the Ki in test [1] (setting [5]) is 5.28 nM; in test [2] (setting [6]) it was 99.2 nM.

Broadly, the Ki is the dissociation constant of the complex between target and ligand, obtained from inhibition or displacement.

Source of the values: patent US9738655B2, “Tetrahydroisoquinolines containing substituted azoles as factor XIa inhibitors” (BRISTOL-MYERS SQUIBB COMPANY, priority 2013, dated 2017).
